Series [1] deals with T1, human FPR1 (Homo sapiens, UniProt P21462).
T1 construct: expressed in transfected cells
T1 sequence (P21462 1-350): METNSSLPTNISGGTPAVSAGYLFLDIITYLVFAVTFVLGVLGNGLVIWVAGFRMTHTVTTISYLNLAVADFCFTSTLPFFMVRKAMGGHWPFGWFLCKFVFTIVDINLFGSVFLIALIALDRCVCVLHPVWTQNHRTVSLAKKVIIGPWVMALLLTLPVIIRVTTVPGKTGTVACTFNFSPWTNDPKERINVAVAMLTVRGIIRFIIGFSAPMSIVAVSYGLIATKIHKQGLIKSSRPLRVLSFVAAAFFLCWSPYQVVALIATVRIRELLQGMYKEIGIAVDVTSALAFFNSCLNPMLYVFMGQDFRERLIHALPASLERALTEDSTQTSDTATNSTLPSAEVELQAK
In words: cell-based.

Series [2] deals with T1, human FPR1. In words: HTRF-based quantification of MAPK/ERK phosphorylation (ERK1/2 Thr202/Tyr204). The class given is cell-based. As to conditions: HeLa-FPR1 cells serum-starved 2 h, agonist 5 min, 37 °C, HTRF phospho-ERK1/2, four-parameter fit, Hill 1, mean and SEM, at least 5 independent measurements; for EC50: read-out: ERK1/2 Activation logEC50 (converted). Background: Time-resolved FRET reads energy transfer from a long-lived donor to a nearby acceptor.

The target of series [3] is T1, human FPR1. In words: Flow cytometric analysis of agonist-induced receptor internalization. The class given is cell-based. As to conditions: HeLa-FPR1 cells; for EC50: agonist 15 min, 37 °C, flow cytometry of surface FLAG-FPR1 (M1 antibody), mean and SEM, 6 independent measurements, NR = no response, read-out: Internalization logEC50 (converted). For orientation: A flow cytometer gives signals particle by particle.

The conditions of series [4]: solvent DMSO; as indicated by the manufacturer; ref manufacturer; cited from earlier work.
The target of series [5] is human formyl peptide receptor 1 (FPR1), N-terminally FLAG-tagged (human) (UniProt P21462).

In general, Solubility refers to the concentration that dissolves in the medium under given conditions.

Where a SMILES comes first, the peptide text is derived from it. Where no end group is shown, it is not given here. The star is where a group is joined. For = O=C*

Turning to `CSCC[C@H](NC=O)C(=O)N[C@@H](CC(N)=O)C(=O)N1CCC[C@H]1C(=O)N[C@@H](CC(C)C)C(=O)N[C@@H](C)C(=O)N[C@@H](CCC(N)=O)C(=O)O` [MT-ND2] (For-MNPLAQ-OH), the EC50 is 2040 nM in series [1] and 6170 nM in series [2].

With `COc1cc(/C=N/NC(=O)c2ccc3c(c2)OCO3)ccc1OCc1ccccc1` [FPRA14], the “cAMP Formation logEC50” value in series [1] (HeLa-FPR1 cells, 5 µM forskolin + 500 µM IBMX with agonist, 30 min, 37 °C, HTRF, […], mean and SEM, at least 7 independent measurements) was −5.94 0.19. The “ERK1/2 Activation logEC50” value in series [2] is on record as −6.06 0.05. Also, the “agonist-induced FPR1 internalization (decrease of cell surface-associated FPR1 pool), in words” value in series [3] (15 min after agonist addition, flow cytometry) is on record as “did not elicit detectable internalization”. In addition, the Solubility in series [4] is 100 mM.

For the molecule `CC[C@H](C)[C@H](NC(=O)[C@H](Cc1ccccc1)NC(=O)[C@H](Cc1c[nH]c2ccccc12)NC(=O)[C@H](C)NC(=O)[C@H](CCC(N)=O)NC(=O)[C@H](CCCCN)NC(=O)[C@H](CC(C)C)NC(=O)[C@H](Cc1ccccc1)NC(=O)[C@H](CCC(=O)O)NC(=O)[C@H](CO)NC(=O)[C@@H](NC(=O)[C@H](CCSC)NC(=O)[C@H](C)NC(C)=O)C(C)C)C(=O)N[C@@H](CCC(=O)O)C(=O)N[C@@H](CC(N)=O)C(=O)N[C@@H](CCC(=O)O)C(=O)N[C@@H](CCC(=O)O)C(=O)N[C@@H](CCC(N)=O)C(=O)N[C@@H](CCC(=O)O)C(=O)N[C@@H](Cc1ccc(O)cc1)C(=O)N[C@H](C(=O)N[C@@H](CCC(N)=O)C(=O)N[C@H](C(=O)N[C@H](C(=O)N[C@@H](CCCCN)C(=O)O)C(C)C)[C@@H](C)O)C(C)C` [Ac2-26] (Ac-AMVSEFLKQAWFIENEEQEYVQTVK-OH), the EC50 in series [1] is 49000 nM; in series [2], 74100 nM.

Consider `CC[C@H](C)[C@H](NC(=O)[C@H](CCSC)NC=O)C(=O)N[C@H](C(=O)N[C@H](C(=O)N[C@@H](CC(C)C)C(=O)O)[C@@H](C)CC)C(C)C` [fMIVIL] (For-MIVIL-OH), for which the results for the EC50 in series [1], in series [2] and in series [3] were 0.871 nM, 1.55 nM and 79.4 nM, respectively.

In the case of `CSCC[C@H](NC=O)C(=O)N[C@@H](CC(C)C)C(=O)N[C@@H](Cc1ccccc1)C(=O)O` [fMLF, formyl-methionyl-leucyl-phenylalanine], the Solubility in series [4] was 4000 µg/mL.

As for `CSCC[C@H](NC=O)C(=O)N[C@@H](CCSC)C(=O)N[C@@H](Cc1ccc(O)cc1)C(=O)N[C@@H](C)C(=O)N[C@@H](CC(C)C)C(=O)N[C@@H](Cc1ccccc1)C(=O)O` [MT-ND6] (For-MMYALF-OH), the figures for the EC50 in series [1], in series [2] and in series [3] were 74.1 nM, 2.19 nM and 776 nM, respectively.

As for `CC(C)C[C@H](NC(=O)CN)C(=O)N[C@@H](CC(C)C)C(=O)N[C@@H](Cc1c[nH]c2ccccc12)C(=O)N[C@H](C(=O)N[C@@H](CCC(=O)O)C(=O)N[C@H](C(=O)NCC(=O)NCC(=O)N[C@@H](CCC(=O)O)C(=O)NCC(=O)N1CCC[C@H]1C(=O)NCC(=O)N1CCC[C@H]1C(=O)N[C@H](C(=O)O)[C@@H](C)O)C(C)C)C(C)C` [gG2p20] (H-GLLWVEVGGEGPGPT-OH), the EC50 in series [1] (HeLa-FPR1 cells, 5 µM forskolin + 500 µM IBMX with agonist, 30 min, 37 °C, HTRF, […], mean and SEM, at least 7 independent measurements, read-out: cAMP Formation logEC50 (converted)) was 437 nM; in series [2] it was 708 nM. The Solubility in series [4] was 2000 µg/mL.

As for `CC[C@H](C)[C@H](NC(=O)[C@H](CC(C)C)NC(=O)[C@H](CCCCN)NC(=O)[C@H](CCSC)NC(=O)[C@H](CC(C)C)NC(=O)[C@@H]1CCCN1C(=O)[C@H](CC(N)=O)NC(=O)[C@@H](NC(=O)[C@H](CCCCN)NC(=O)[C@H](CCCNC(=N)N)NC(=O)[C@H](CCSC)NC(=O)[C@@H]1CCCN1C(=O)[C@@H](NC(=O)[C@H](CCSC)NC=O)[C@@H](C)O)[C@@H](C)O)C(=O)N[C@@H](CC(N)=O)C(=O)O` [CYTB] (For-MTPMRKTNPLMKLIN-OH), the EC50 in series [1] is 3020 nM; in series [2] it was 7760 nM.

For For-MIVIL [formylated pentapeptide fMIVIL from Listeria monocytogenes], in series [5], the EmaxA of agonist-induced FPR1 internalization, HeLa-FPR1 cells (flow cytometry, 15 min; normalised to 10^-4 M W-peptide) (fraction of the maximum system response) stood at 0.97; the EmaxA of inhibition of forskolin-induced cAMP formation, HeLa-FPR1 cells (HTRF, 30 min; normalised to forskolin) (fraction of the maximum system response) was 0.82; the logEC50 of agonist-induced FPR1 internalization, HeLa-FPR1 cells (flow cytometry, 15 min) (log M (unit not given)) was -7.1; the logEC50 of inhibition of forskolin-induced cAMP formation, HeLa-FPR1 cells (HTRF, 30 min) (log M (unit not given)) is -9.06.

With For-MMYALF, in series [5], the EmaxA of agonist-induced FPR1 internalization, HeLa-FPR1 cells (flow cytometry, 15 min; normalised to 10^-4 M W-peptide) (fraction of the maximum system response) is 0.63; the EmaxA of inhibition of forskolin-induced cAMP formation, HeLa-FPR1 cells (HTRF, 30 min; normalised to forskolin) (fraction of the maximum system response) worked out at 0.66; the logEC50 of agonist-induced FPR1 internalization, HeLa-FPR1 cells (flow cytometry, 15 min) (log M (unit not given)) was -6.11; the logEC50 of inhibition of forskolin-induced cAMP formation, HeLa-FPR1 cells (HTRF, 30 min) (log M (unit not given)) was -7.13.

For the molecule For-MTPMRKTNPLMKLIN [formylated peptide corresponding to the N-terminus of human cytochrome b (CYTB; f…)], in series [5], the EmaxA of inhibition of forskolin-induced cAMP formation, HeLa-FPR1 cells (HTRF, 30 min; normalised to forskolin) (fraction of the maximum system response) worked out at 0.39 and the logEC50 of inhibition of forskolin-induced cAMP formation, HeLa-FPR1 cells (HTRF, 30 min) (log M (unit not given)) is -5.52.

In series [5], WKYMVM [synthetic agonist W-peptide (WKYMVm)] gave an EmaxA of agonist-induced FPR1 internalization, HeLa-FPR1 cells (flow cytometry, 15 min; normalised to 10^-4 M W-peptide) (fraction of the maximum system response) of 1; an EmaxA of inhibition of forskolin-induced cAMP formation, HeLa-FPR1 cells (HTRF, 30 min; normalised to forskolin) (fraction of the maximum system response) of 0.82; a logEC50 of agonist-induced FPR1 internalization, HeLa-FPR1 cells (flow cytometry, 15 min) (log M (unit not given)) of -7.66; a logEC50 of inhibition of forskolin-induced cAMP formation, HeLa-FPR1 cells (HTRF, 30 min) (log M (unit not given)) of -8.96.

In the case of GLLWVEVGGEGPGPT (not fully specified) [gG-2p20 peptide derived from the secreted glycoprotein sgG-2 of herpes simplex virus type 2 (HSV-2)], in series [5], the EmaxA of inhibition of forskolin-induced cAMP formation, HeLa-FPR1 cells (HTRF, 30 min; normalised to forskolin) (fraction of the maximum system response) is 0.68 and the logEC50 of inhibition of forskolin-induced cAMP formation, HeLa-FPR1 cells (HTRF, 30 min) (log M (unit not given)) was -6.36.

Turning to Ac-AMVSEFLKQAWFIENEEQEYVQTVK [acetylated peptide Ac2-26 corresponding to the N-terminus of human annexin A1], in series [5], the EmaxA of inhibition of forskolin-induced cAMP formation, HeLa-FPR1 cells (HTRF, 30 min; normalised to forskolin) (fraction of the maximum system response) was found to be 0.63 and the logEC50 of inhibition of forskolin-induced cAMP formation, HeLa-FPR1 cells (HTRF, 30 min) (log M (unit not given)) was -4.31.

Turning to For-MNPLAQ, in series [5], the EmaxA of inhibition of forskolin-induced cAMP formation, HeLa-FPR1 cells (HTRF, 30 min; normalised to forskolin) (fraction of the maximum system response) worked out at 0.63 and the logEC50 of inhibition of forskolin-induced cAMP formation, HeLa-FPR1 cells (HTRF, 30 min) (log M (unit not given)) was -5.69.
